Experimental data taken from US20230183656A1, “METHODS AND COMPOSITIONS FOR PURIFYING ADENO ASSOCIATED VIRUS PARTICLES OR ADENOVIRUSES” (Merck Patent GmbH, priority 2020, published 2023).

Key:
HEK293T-derived cells = experiment: Turbidity post lysis and % cell lysis (ViCell XR) in 3L Mobius bioreactor; assay type: cell-based, human; conditions: AAV2, 3L Mobius at 72 hr PT; NaCl at 0.5 M; lysed cells to total cells before lysis
Description: Cell lysis performed according to the general procedure of Example 1 was performed with different reagents and compared in terms of turbidity reduction and lysis efficiency.
Each turbidity in Table 2 is an average of 1-3 bioreactors x 2 measurements. PT = post transfection. […] Cell counts were taken by ViCell XR before lysis and at 30 min post lysis, and % cell lysis was calculated as a ratio of lysed cells to total cells before lysis.

AAV2 = AAV2 release after cell lysis (physical titer by ELISA, genome titer by qPCR); assay type: cell-based; conditions: for AAV2 viral titers after cell lysis: 90 min, 37° C., 0.5% Triton X-100, 0.5 M NaCl, or 0.5 M sodium chloride and 1% TDAO, FIG. 1 and 2; for increase of AAV2 dissociation by addition to 0.5 M NaCl: 1% detergent added to 0.5 M NaCl, FIG. 2
Description: (§1) An AAV2 suspension upstream process is performed including a cell lysis step using various single reagents, like Triton X-100 (T100) or TDAO at various concentrations or 0.5 M NaCl, all at 37° C. The samples were centrifuged at ~13000 g for 5 min at different time points post lysis, and supernatants were removed and stored at -70° C. for assays. Physical titers were measured by enzyme-linked immunosorbent assay (ELISA) using an AAV2 Titration ELISA kit (Progen) following manufacturer’s protocol, genome titers were measured by quantitative PCR (qPCR) targeting a specific sequence within the transfer vector. All reagents and assay protocols are from MilliporeSigma unless otherwise specified. Among all the conditions tested, 0.5 M NaCl was the only one capable of releasing significant amounts of AAV2 at physical titer of e10 vp/mL and genome titer of e9 gc/mL levels (FIG. 1). Moreover, time-dependent effects from 30 min to 90 min post lysis for all 3 single reagents, and concentration-dependent effects from 0.5% to 1% for both single detergents have been observed (FIG. 1).
The same process is performed as in Example 1 but with NaCl combined with different detergents.
To investigate the optimal concentration of TDAO in combination with 0.5 M NaCl, an AAV2 dissociation test using 0 to 4% of TDAO and including an additional lysis time of 60 min was performed. […] Furthermore, the best lysis time of 90 min was confirmed as before based on genome titers. When calculating % full viral particles (vp) as the ratio of genome titer to physical titer, it was noted that 2% TDAO also facilitated more release of full viral particles over time with ~100% full VP at 90 min post lysis due to unknown mechanisms (FIG. 4).

[1] = cited from earlier work
AAV9 = AAV9 release after cell lysis (titers as in Example 1); assay type: cell-based; conditions: with NaCl, FIG. 5
Description: as §1
An AAV9 suspension upstream process is performed as in Example 1 but using both single reagents and double reagents combined with NaCl.

[Cl-].[Na+] [NaCl, sodium chloride, reference compound]
% cell lysis after 30 min (HEK293T-derived cells): 80%
AAV2 viral titers after cell lysis (AAV2): significantly reduced viral titers

Triton X-100 [reference compound]
increase of AAV2 dissociation by addition to 0.5 M NaCl (AAV2): not
AAV2 viral titers after cell lysis (AAV2): significantly reduced viral titers

CCCCCCCCCCCC[N+](C)(C)[O-] [LDAO, N,N-Dimethyldode cylamine N-oxide]
biodegradation in 28 days [1]: 95%

CCCCCCCC[N+](C)(C)[O-] [N,N-Dimethyloctyl amine N-oxide]
biodegradation in 28 days [1]: 100%

CCCCCCCCCCCCCC[N+](C)(C)[O-] [TDAO, N,N-Dimethyltertra decylamine N-oxide]
AAV9 dissociation, double reagents with 2% TDAO compared to 1% TDAO (AAV9): no benefits
increase of AAV2 dissociation by addition of TDAO to 0.5 M NaCl (AAV2; 0 to 4% of TDAO, genome titers, FIG. 3): 3-5 fold
increase of AAV2 dissociation by addition to 0.5 M NaCl (AAV2): 3-9 fold
% full viral particles (ratio of genome titer to physical titer) (AAV2; 2% TDAO with 0.5 M NaCl, 90 min post lysis, FIG. 4): ~ 100%
biodegradation in 28 days [1]: 88%

CCCCCCCCCCCCCCCC[N+](C)(C)[O-] [N,N-Dimethylhexa decylamine N-oxide]
biodegradation in 28 days [1]: <88%

CCCCCCCCCC[N+](C)(C)[O-] [N,N-Dimethyldecyl amine N-oxide]
biodegradation in 28 days [1]: 97%
